Bounds are passed on as bounds.

Series [1] is described as follows: log P by HPLC on reversed phase columns (Method L0; [a] acidic, [b] neutral range). As to conditions: for log P: HPLC on reversed phase columns (Method L0); for logP (Method L0) [a]: HPLC on reversed phase columns, Method L0, [a] acidic range.
Description: Calibration was done with straight-chain alkan-2-ones (with 3 to 16 carbon atoms) with known log P values (measurement of log P values using retention times with linear interpolation between successive alkanones). Lambda-max-values were determined using UV-spectra from 200 nm to 400 nm and the peak values of the chromatographic signals.
Another series has as its target C. elegans Slo-1a (Caenorhabditis elegans, UniProt Q95V25). The series can be described thus: In vitro assay 1: C. elegans Slo-1a, action at a recombinant C. elegans CHO cell line (membrane potential measurement). As to conditions: for pE50: CHO cells expressing C. elegans Slo-1a, voltage sensitive dye, FLIPR Tetra, negative decadic logarithm of EC50.
The subject of series [2] is Dirofilaria immitis microfilariae. The series can be described thus: In vitro assay 3: Dirofilaria immitis microfilariae (DIROIM L1), motility. To be noted: 72 h, reduction of motility vs negative control, 72 h incubation.
Setting [3] is: last column of Table 1, column head not shown.

Chain of C. elegans Slo-1a (Q95V25 whole entry): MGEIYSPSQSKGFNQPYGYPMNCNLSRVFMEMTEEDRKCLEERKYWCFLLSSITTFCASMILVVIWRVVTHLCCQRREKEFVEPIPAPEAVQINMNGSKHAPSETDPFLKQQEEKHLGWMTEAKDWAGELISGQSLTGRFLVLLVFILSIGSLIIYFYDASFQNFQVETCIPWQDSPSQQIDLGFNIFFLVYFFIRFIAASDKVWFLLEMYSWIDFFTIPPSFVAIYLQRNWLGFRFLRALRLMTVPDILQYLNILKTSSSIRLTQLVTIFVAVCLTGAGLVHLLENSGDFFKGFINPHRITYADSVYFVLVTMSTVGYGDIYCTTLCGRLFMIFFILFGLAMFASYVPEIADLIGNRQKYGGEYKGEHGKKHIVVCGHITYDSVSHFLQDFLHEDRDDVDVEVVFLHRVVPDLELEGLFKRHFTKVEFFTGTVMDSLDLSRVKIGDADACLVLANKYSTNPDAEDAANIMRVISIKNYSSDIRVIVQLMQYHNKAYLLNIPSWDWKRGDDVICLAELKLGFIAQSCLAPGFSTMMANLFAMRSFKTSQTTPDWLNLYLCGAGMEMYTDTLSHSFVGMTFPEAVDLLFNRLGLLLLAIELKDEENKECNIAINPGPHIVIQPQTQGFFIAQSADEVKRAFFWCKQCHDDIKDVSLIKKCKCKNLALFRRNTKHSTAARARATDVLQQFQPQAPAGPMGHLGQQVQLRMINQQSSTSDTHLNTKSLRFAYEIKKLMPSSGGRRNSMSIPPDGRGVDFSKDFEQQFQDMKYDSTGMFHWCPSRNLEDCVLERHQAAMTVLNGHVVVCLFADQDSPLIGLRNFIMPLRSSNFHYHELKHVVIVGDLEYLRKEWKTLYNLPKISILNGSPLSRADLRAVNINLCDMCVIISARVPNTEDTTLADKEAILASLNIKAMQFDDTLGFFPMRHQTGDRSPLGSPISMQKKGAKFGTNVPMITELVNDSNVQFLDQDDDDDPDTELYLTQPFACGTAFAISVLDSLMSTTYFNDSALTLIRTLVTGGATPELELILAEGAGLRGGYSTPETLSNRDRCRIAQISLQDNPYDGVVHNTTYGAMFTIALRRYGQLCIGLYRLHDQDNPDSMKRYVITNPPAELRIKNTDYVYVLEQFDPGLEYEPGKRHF
Description for C. elegans Slo-1a: In Vitro Assay 1: C. Eleqans Slo-La—Action at a Recombinant C. elegans Cell Line
Cells were cultured at 37° C. and 5% CO2 in MEMalpha with Gutamax I (Invitrogen, Nr.: 32571), supplemented with 10% (v/v) heat inactivated fetal bovine serum (Invitrogen, Nr.: 10500), G418 (1 mg/ml, Invitrogen, Nr.: 10131). Cells were detached using Accutase (Sigma, Nr.: A6964).
Membrane Potential Measurements
Laboratory compound testing was performed on 384-well microtiter plates (MTPs, Greiner, Nr.: 781092). 8000 cells/well were plated onto 384-well MTPs and cultured for 20 to 24 hours at 37° C. and 5% CO2. After removal of the cell culture medium, the cells were washed once with tyrode (150 mM NaCl, 0.3 mM KCl, 2 mM CaCl2, 1 mM MgCl2, 0.8 mM NaH2PO4, 5 mM Glucose, 28 mM Hepes, pH 7.4) and then loaded with the voltage sensitive dye of the Membrane Potential Assay Kit diluted in tyrode for 1 h at room temperature.
After starting the measurement of fluorescence using a FLIPR Tetra (Molecular Devices, Exc. 510-545 nm, Emm. 565-625 nm), test compounds were added followed by the addition of KCl tyrode (final assay concentration: 70 mM KCl, 2 mM CaCl2, 1 mM MgCl2, 0.8 mM NaH2PO4, 5 mM Glucose, 28 mM Hepes, pH 7.4, including the voltage sensitive dye). The measurement was completed after 7 minutes.

`Cc1nn2c(C3CC3)c(C(=O)N[C@H]3CCOc4ccccc43)cnc2c1-c1cccc(F)c1` [Example 456] yielded a chromatographic logP in series [1] of 3.71. The concentration giving a half-maximal response (EC50) at C. elegans Slo-1a is 0.00631 µM; in series [2], < 0.1 mg/L.

`Cc1nn2c(C(C)C)c(C(=O)N[C@H]3CCc4ccccc43)cnc2c1-c1cccc(NC(=O)C(F)(F)F)c1` [Example 315] showed a chromatographic logP in series [1] of 4.28. For the same compound, the 50% effective concentration (EC50) at C. elegans Slo-1a is 0.251 µM; in series [2] it was < 1 mg/L.

As to `COc1cccc(-c2c(C3CC3)nn3c(C(C)C)c(C(=O)N[C@H]4CCc5ccccc54)cnc23)c1` [Example 408], the chromatographic logP in series [1] was determined as 5.19. Moreover, the EC50 is 0.316 µM on C. elegans Slo-1a and < 10 mg/L in series [2].

Consider `COc1cc(-c2c(C)nn3c(C(C)C)c(C(=O)N[C@H]4CCOc5ccccc54)cnc23)cc(C(F)(F)F)c1` [Example 391], for which, in series [1], the chromatographic logP is 5.13. Moreover, the figures for the half-maximal effective concentration (EC50) (at C. elegans Slo-1a; in series [2]) were 0.0251 µM and < 1 mg/L, respectively.

Take `Cc1nn2c(CC(C)C)c(C(=O)N[C@H]3CCOc4ccccc43)cnc2c1-c1c(F)cccc1Cl` [Example 225]: the chromatographic logP in series [1] came to 4.56. The concentration for a half-maximal effect (EC50) at C. elegans Slo-1a is 0.0126 µM; in series [2], < 0.1 mg/L.

Compound `Cc1nn2c(C(C)C)c(C(=O)N[C@H]3CCCc4ccccc43)cnc2c1-c1ccc(F)c(F)c1` [Example 102] showed a chromatographic logP in series [1] of 5.14. Further, the values for the EC50 (at C. elegans Slo-1a; in series [2]) were 0.0631 µM and < 10 mg/L, respectively.

Compound `Cc1nn2c(C(C)C)c(C(=O)N[C@H]3CCCc4ccccc43)cnc2c1-c1cnn(CC2CC2)c1` [Example 420] registered a chromatographic logP in series [1] of 4.13. Further, the results for the EC50 (on C. elegans Slo-1a; in series [2]) were 0.00794 µM and < 10 mg/L, respectively.

`COCc1ccc(-c2c(C)nn3c(C(C)C)c(C(=O)N[C@H]4CCc5ccccc54)cnc23)cc1` [Example 340]: the chromatographic logP in series [1] was 4.41. Also, the concentration giving a half-maximal response (EC50) at C. elegans Slo-1a was 0.0398 µM; in series [2], < 1 mg/L.

As for `CC(C)c1c(C(=O)N[C@H]2CCc3ccccc32)cnc2c(-c3cccc(C(F)(F)F)c3)c(C(F)F)nn12` [Example 433], the chromatographic logP in series [1] turned out to be 5.03. The EC50 was 0.01 µM at C. elegans Slo-1a and < 10 mg/L in series [2].

In the case of `CC(C)c1c(C(=O)N[C@H]2CCOc3ccccc32)cnc2c(-c3c(F)cccc3F)c(C(F)(F)F)nn12` [Example 139], the chromatographic logP in series [1] stood at 4.56. Also, the figures for the EC50 (at C. elegans Slo-1a; in series [2]) were 0.126 µM and < 0.1 mg/L, respectively.

`Cc1nn2c(C(C)C)c(C(=O)N[C@H]3CCc4ccccc43)cnc2c1-c1cccc(CN(C)C)c1` [Example 366] had a chromatographic logP in series [1] of 1.95. For the same compound, the EC50 at C. elegans Slo-1a is 1.58 µM; in series [2], < 10 mg/L.

With `Cc1nn2c(C(C)C)c(C(=O)N[C@H]3CCc4ccccc43)cnc2c1-c1cccc(OCC#N)c1` [Example 320], the chromatographic logP in series [1] worked out at 4.09. Further, the EC50 at C. elegans Slo-1a is 0.0501 µM; in series [2], < 10 mg/L.

`Cc1nn2c(C3CC3)c(C(=O)N[C@H]3CCOc4ccccc43)cnc2c1-c1cccc(N2CC(F)(F)C2)c1` [Example 464] yielded a chromatographic logP in series [1] of 3.92. The EC50 on C. elegans Slo-1a is 0.00316 µM; in series [2], < 0.1 mg/L.

Turning to `COc1cc(-c2c(C(F)(F)F)nn3c(C(C)C)c(C(=O)N[C@H]4CCc5ccccc54)cnc23)ccc1F` [Example 160], in series [1], the chromatographic logP stood at 4.89. Besides, the EC50 at C. elegans Slo-1a was 0.1 µM; in series [2], < 10 mg/L.

`Cc1nn2c(C(C)C)c(C(=O)N[C@H]3CCOc4ccccc43)cnc2c1-c1ccccc1C#N` [Example 264] had a chromatographic logP in series [1] of 3.68. The EC50 on C. elegans Slo-1a was 0.0251 µM; in series [2] it was < 1 mg/L.

Take `Cc1nn2c(C(C)C)c(C(=O)N[C@H]3CCOc4ccccc43)cnc2c1-c1ccc(Cl)c(F)c1` [Example 220]: the chromatographic logP in series [1] came to 5.08. In addition, the EC50 on C. elegans Slo-1a was 0.02 µM; in series [2] it was < 1 mg/L.

Turning to `COc1c(Cl)ccc(-c2c(C)nn3c(C(C)C)c(C(=O)N[C@H]4CCOc5ccccc54)cnc23)c1F` [Example 216], in series [1], the “log P” value is 4.74. The pE50 on C. elegans Slo-1a is listed as 9.1.

In series [1], `Cc1nn2c(C(C)C)c(C(=O)N[C@H]3CCc4ccccc43)cnc2c1-c1ccc(OC(F)F)cc1` [Example 335] displayed a chromatographic logP of 4.66. For the same compound, the EC50 on C. elegans Slo-1a is 0.126 µM.

For the compound `CC(C)c1c(C(=O)N[C@H]2CCc3ccccc32)cnc2c(-c3ccccc3Cl)c(C(F)(F)F)nn12` [Example 88], the chromatographic logP in series [1] was 4.96. The EC50 at C. elegans Slo-1a is 0.0794 µM.

Regarding `Cc1nn2c(C(C)C)c(C(=O)NC3CCc4ccccc43)cnc2c1-c1cccc(C(F)(F)F)c1` (stereo not drawn) [Example 1], the chromatographic logP in series [1] amounted to 5.29. Further, the EC50 on C. elegans Slo-1a is 0.0398 µM.

In the case of `CC(C)c1c(C(=O)N[C@H]2CCCc3ccccc32)cnc2c(-c3cccc(C(F)(F)F)c3)c(Cl)nn12` [Example 72], the chromatographic logP in series [1] came to 5.85. Moreover, the half-maximal effective concentration (EC50) on C. elegans Slo-1a is 0.0794 µM.

As to `Cc1ccc2c(c1)C(NC(=O)c1cnc3c(-c4c(F)cccc4Cl)c(C)nn3c1C(C)C)CCO2` (racemic) [Example 237], in series [1], the “log P” value was 4.67. Also, at C. elegans Slo-1a, the pE50 turned out to be 7.5.

For `Cc1nn2c(C(C)C)c(C(=O)N[C@H]3CCc4ccccc43)cnc2c1-c1cccc(C[S+](C)[O-])c1` (stereo partly drawn) [Example 380], in series [1], the “log P” value turned out to be 3.05. In addition, at C. elegans Slo-1a, the pE50 is listed as 6.

With `Cc1nn2c(C(C)C)c(C(=O)N[C@H]3CCc4ccccc43)cnc2c1-c1cccc(N2CCOCC2)c1` [Example 316], in series [1], the chromatographic logP came out at 4.26. Moreover, the concentration for a half-maximal effect (EC50) on C. elegans Slo-1a was 0.158 µM.

In turn, `Cc1nn2c(C)c(C(=O)N[C@H]3CCCc4ccccc43)cnc2c1-c1cccc(Cl)c1` [Example 46] registered a chromatographic logP in series [1] of 4.42. Further, on C. elegans Slo-1a, the EC50 is 0.251 µM.

In series [1], `CC(C)c1c(C(=O)N[C@H]2CCCc3ccccc32)cnc2c(-c3ccccc3Cl)c(C(F)(F)F)nn12` [Example 89] registered a chromatographic logP of 5.24. For the same compound, the EC50 at C. elegans Slo-1a was 0.631 µM.

As for `CC(C)c1c(C(=O)N[C@H]2CCc3ccccc32)cnc2c(-c3cccc(C(F)(F)F)c3)c(Cl)nn12` [Example 70], the chromatographic logP in series [1] came out at 5.55. The 50% effective concentration (EC50) on C. elegans Slo-1a was 0.0316 µM.

As to `Cc1nn2c(C(C)C)c(C(=O)N[C@H]3CCOc4ccccc43)cnc2c1-c1cccc(OC(F)(F)F)c1F` [Example 215], in series [1], the lipophilicity (log P) amounted to 5.02. For the same compound, on C. elegans Slo-1a, the pE50 is on record as 9.1.

`Cc1nn2c(C(C)C)c(C(=O)N[C@H]3CCOc4ccc(Cl)cc43)cnc2c1-c1cc(F)ccc1F` [Example 114]: the “logP (Method L0) [a]” value in series [1] is reported as 4.82. Besides, at C. elegans Slo-1a, the pE50 is 6.9.

Regarding `CC(C)c1c(C(=O)N[C@H]2CCc3ccccc32)cnc2c(-c3cccc(C(F)(F)F)c3)c(C(F)(F)F)nn12` [Example 91], the chromatographic logP in series [1] was 5.51. For the same compound, the EC50 at C. elegans Slo-1a is 0.0631 µM.

Take `Cc1nn2c(NC3CC3)c(C(=O)N[C@H]3CCOc4ccccc43)cnc2c1-c1cc(Cl)cc(Cl)c1` [Example 542]: the lipophilicity (log P) in series [1] (setting [3]) was 5.59. For the same compound, the pE50 at C. elegans Slo-1a is reported as 6.5.

On to `Cc1nn2c(C(C)C)c(C(=O)N[C@H]3CCc4ccccc43)cnc2c1-c1ccc(Cl)nc1` [Example 295], for which the chromatographic logP in series [1] stood at 4.21. Also, the concentration giving a half-maximal response (EC50) at C. elegans Slo-1a is 0.0631 µM.

Regarding `Cc1nn2c(NC3CC3)c(C(=O)N[C@H]3CCOc4ccccc43)cnc2c1-c1cccc(Cl)c1Cl` [Example 546], the log partition coefficient (log P) in series [1] (setting [3]) came to 4.32. Besides, the pE50 at C. elegans Slo-1a was found to be 8.2.

As to `Cc1nn2c(CN(C)C)c(C(=O)N[C@H]3CCc4ccccc43)cnc2c1-c1cccc(Cl)c1Cl` [Example 522], in series [1] (setting [3]), the “log P” value was determined as 2.08. In addition, the pE50 at C. elegans Slo-1a turned out to be 7.8.

For `Cc1nn2c(N3CCOCC3)c(C(=O)N[C@H]3CCOc4ccccc43)cnc2c1-c1cccc(C(F)(F)F)c1F` [Example 530], the “log P” value in series [1] (setting [3]) was determined as 3.99. Besides, the pE50 at C. elegans Slo-1a amounted to 9.0.

Turning to `CC(C)c1c(C(=O)N[C@H]2CCOc3ccccc32)cnc2c(-c3cccc(F)c3F)c(Cl)nn12` [Example 281, 2-Chloro-N—((S)-chroman-4-yl)-3-(2,3-difluorophenyl)-7-isopropylpyrazolo[1,5-a]pyrimidine-6-carboxamide], the figures for the EC50 (at C. elegans Slo-1a; in series [2]) were 0.00501 µM and < 0.1 mg/L, respectively.

As for `Cc1nn2c(C(C)C)c(C(=O)N[C@H]3CCOc4ccccc43)cnc2c1-c1cnn(CC(F)(F)F)c1` [Example 401], the “log P” value in series [1] (setting [3]) turned out to be 3.57. On C. elegans Slo-1a, the pE50 stood at 7.9.

With `Cc1nn2c(C(C)C)c(C(=O)N[C@H]3CCOc4ccc(Cl)cc43)cnc2c1-c1ccccc1Cl` [Example 104], the “logP (Method L0) [a]” value in series [1] is listed as 4.87. At C. elegans Slo-1a, the pE50 was 7.

As for `Cc1nn2c(C(F)F)c(C(=O)N[C@H]3CCc4ccccc43)cnc2c1-c1cccc(C(F)(F)F)c1` [Example 311, (S)-7-(Difluoromethyl)-N-(2,3-dihydro-1H-inden-1-yl)-2-methyl-3-(3-(trifluoromethyl)-phenyl)-pyrazolo[1,5-a]pyrimidine-6-carboxamide], the chromatographic logP in series [1] amounted to 4.36. The EC50 at C. elegans Slo-1a is 0.2 µM.

On to `Cc1nn2c(C(C)C)c(C(=O)N[C@H]3CCOc4ccccc43)cnc2c1-c1ccc(Cl)c(Cl)c1` [Example 230], for which the lipophilicity (log P) in series [1] was 5.48. The pE50 at C. elegans Slo-1a came to 8.1.

In turn, `Cc1nn2c(C(C)C)c(C(=O)N[C@H]3CCc4ccccc43)cnc2c1-c1cccc(-n2cccn2)c1` [Example 328] displayed a chromatographic logP in series [1] of 4.4. On C. elegans Slo-1a, the concentration for a half-maximal effect (EC50) is 0.0398 µM.

As to `Cc1nn2c(C3CC3)c(C(=O)N[C@H]3CCc4ccccc43)cnc2c1-c1cnn(CC(F)(F)F)c1` [Example 421], the log partition coefficient (log P) in series [1] (setting [3]) is 3.17. Also, the pE50 at C. elegans Slo-1a is 8.1.

On to `Cc1ccc2c(c1)[C@@H](NC(=O)c1cnc3c(-c4c(F)cccc4F)c(C)nn3c1C(C)C)CCC2` [Example 108], for which the “logP (Method L0) [a]” value in series [1] was 5.09. For the same compound, on C. elegans Slo-1a, the pE50 is reported as 7.3.

Values taken from patent US11001590B2, “Pyrazolopyrimidine derivatives” (BAYER ANIMAL HEALTH GMBH, priority 2016, dated 2021).
